The record followed here is patent US20120309812A1 (SYNGENTA CROP PROTECTION LLC, priority 2010, published 2012).

Data set [1] relates to Myzus persicae. The experiment in a line: Myzus persicae (Green peach aphid) sunflower leaf disc spray test. Format: in vivo. To be noted: application rate 200 ppm, sprayed sunflower leaf discs, aphid population of mixed ages, mortality 6 DAT. How it is done: Myzus persicae (Green peach aphid):
Sunflower leaf discs were placed on agar in a 24-well microtiter plate and sprayed with test solutions at an application rate of 200 ppm. After drying, the leaf discs were infested with an aphid population of mixed ages. After an incubation period of 6 DAT, samples were checked for mortality. The following compound gave at least 80% control of Myzus persicae: A3.

SMILES strings stand for the structures.

Consider `COc1c(NC(=O)c2ccccc2)cccc1C(=O)Nc1c(Cl)cc(C(F)(c2ccc(Cl)cc2)C(F)(F)F)cc1Cl` (centres unmarked) [A3], for which the “control of Myzus persicae” value in data set [1] was “at least 80%”. The molecule `O=C(Nc1c(Cl)cc(C(F)(c2ccsc2)C(F)(F)F)cc1Cl)c1cccc(NC(=O)c2c(F)cc(F)cc2F)c1F` (centres unmarked) [A5, N-{3-[2,6-Dichloro-4-(2,2,2-trifluoro-1-fluoro-1-thiophen-3-ylethyl)-phenylcarbamoyl]-2-fluorophenyl}-2,4,6-trifluorobenzamide] yielded a melting point of 197 to 199 °C.

By melting point is commonly meant the temperature of the solid-liquid transition.
